Test results published in US20060223792A1, “Phenyl and pyridyl LTA4H modulators” (priority 2005, published 2006).
Like-named read-outs stand apart in the source and are kept apart here.

Experiments:
[1] = target: T1, recombinant human LTA4 hydrolase (rhLTA4H) (Homo sapiens, UniProt P09960); assay: Recombinant human LTA4 hydrolase assay for LTA4 hydrolase inhibitor activity; assay type: biochemical; conditions: recombinant human LTA4H, LTB4 quantified by enzyme-linked immunoassay; average of one to three determinations; read-out: IC50
T1 construct: made in house; host or cells: Spodoptera frugiperda (Sf-9) cells, baculovirus (pFastBac1)
T1 sequence (P09960 1-611): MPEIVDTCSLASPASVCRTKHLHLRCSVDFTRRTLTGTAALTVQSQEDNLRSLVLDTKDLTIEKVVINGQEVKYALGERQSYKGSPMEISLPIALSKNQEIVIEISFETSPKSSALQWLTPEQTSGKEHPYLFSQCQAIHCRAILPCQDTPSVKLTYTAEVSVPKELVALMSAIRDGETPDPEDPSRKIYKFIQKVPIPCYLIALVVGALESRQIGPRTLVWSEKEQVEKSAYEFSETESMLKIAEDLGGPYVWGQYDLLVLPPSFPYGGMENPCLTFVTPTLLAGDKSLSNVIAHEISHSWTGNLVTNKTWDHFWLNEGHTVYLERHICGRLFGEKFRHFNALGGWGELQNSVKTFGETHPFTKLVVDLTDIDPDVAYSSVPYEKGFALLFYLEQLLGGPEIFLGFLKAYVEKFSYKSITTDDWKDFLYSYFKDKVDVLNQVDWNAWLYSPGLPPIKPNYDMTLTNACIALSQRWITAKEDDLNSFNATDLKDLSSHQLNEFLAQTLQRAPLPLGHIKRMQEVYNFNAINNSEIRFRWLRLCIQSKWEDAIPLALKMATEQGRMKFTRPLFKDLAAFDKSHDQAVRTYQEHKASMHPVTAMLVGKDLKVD
Summary of the method: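 Sf-9-expressed rhLTA4H (36 ng) preincubated 10 min at rt with compound in 0.1 M potassium phosphate pH 7.4, 5 mg/mL fatty-acid-free BSA; 9 ng LTA4 free acid added, 10 min at rt in 225 μL. LTB4 measured by enzyme immunoassay; IC50 from 4-parameter fit, mean of one to three determinations.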

[2] = tested on: neutrophil influx (myeloperoxidase, MPO); assay: Murine arachidonic acid-induced inflammation model: neutrophil influx in ear (myeloperoxidase activity); assay type: in vivo, female Balb/c mice; conditions: Mus musculus, read-out: % Inh. MPO
Experimental: Murine Arachidonic Acid-Induced Inflammation Model
LTA4H inhibitor compounds of the present invention were dissolved in 20% cyclodextran/H2O at a concentration of 3 mg/mL. The solutions were administered by oral gavage to female Balb/c mice weighing approximately 20 grams each (0.2 mL per mouse, 30 mg of LTA4H inhibitor compound per kg). Sixty minutes after being administered an LTA4 inhibitor, each mouse received topical application of 20 μL of arachidonic acid (100 mg/mL in acetone) to the left ear and 20 μL of acetone only to the right ear. After 3 h, the mice were sacrificed, blood was withdrawn in heparinized syringes, and 8 mm ear biopsies were taken. Ear biopsies were weighed to determine edema and then frozen at −80° C. until needed for determination of neutrophil influx.
Neutrophil influx was quantified by measuring the activity of myeloperoxidase (MPO), a neutrophil-specific enzyme. The ear biopsies were homogenized in 0.5 mL extraction buffer (0.3 M sucrose, 0.22% (w/v) hexadecyl trimethyl ammonium bromide (CTAB), and 2.5 mM citrate prepared from 0.5 M citrate stock solution (pH 5.0)). Debris was removed by centrifugation at 14000×g for 10 min. Aliquots of 10 μL of the resulting supernatant were added to wells of a microtiter plate, along with 90-μL aliquots of dilution buffer (10 mM citrate, 0.22% CTAB), followed by addition of 20 μL TMB liquid substrate system (Sigma Chemical Co.) to each sample well. The microtiter plate contents were held at rt for 1 h. The reaction was stopped by addition of 100 μL 1 M H2SO4 to each sample well, and the myeloperoxidase activity in each sample was determined from the absorbance at 405 nm. The background value from the right ear, treated only with acetone, was subtracted from that for the left ear, treated with arachidonic acid in acetone, for each animal. The percent inhibition of neutrophil influx (% lnh. MPO) by compounds of the invention was determined by comparison to animals treated identically, except that the solution administered by oral gavage was devoid of inhibitor compound.

[3] = 30 mg/kg oral gavage 60 min before topical arachidonic acid to ear, female Balb/c mice, ear biopsies after 3 h

SMILES | IC50 [1] [µM] | inhibition in vivo at 30 mg/kg ([2]; po, 3 h) [%] | inhibition in vivo at 30 mg/kg [2, 3] [%]
CN(C(=O)Oc1ccc(OCCN2CCC(O)(c3ccccc3)CC2)cc1)c1ccccc1 [Example 40, Methyl-phenyl-carbamic acid 4-[2-(4-hydroxy-4-phenyl-piperidin-1-yl)-ethoxy]-phenyl ester] | 0.073 | 75 | 
O=C(O)C1CCN(CCc2ccc(OCCc3ccccc3)cc2)CC1 [Example 81, 1-[2-(4-Phenethyloxy-phenyl)-ethyl]-piperidine-4-carboxylic acid] | 0.019 |  | 64
O=C(O)C1CCN(Cc2ccc(OCCCc3ccccc3)cc2)CC1 [Example 112, 1-[4-(3-Phenyl-propoxy)-benzyl]-piperidine-4-carboxylic acid] | 0.004 |  | 79
O=C(O)C1CCN(CCOc2ccc(OCCCc3ccccc3)cc2)CC1 [Example 117, 1-{2-[4-(3-Phenyl-propoxy)-phenoxy]-ethyl}-piperidine-4-carboxylic acid] | 0.051 |  | 62

The next lines start with results.

IC50 [1] [µM] | SMILES | inhibition in vivo at 30 mg/kg ([2]; po, 3 h) [%] | inhibition in vivo at 30 mg/kg [2, 3] [%]
0.01 | O=C(O)C1CCN(Cc2ccc(OCCc3ccccc3)cc2)CC1 [Example 96, 1-(4-Phenethyloxy-benzyl)-piperidine-4-carboxylic acid] |  | 95
0.017 | O=C1CCCN1C1CCN(Cc2ccc(OCCc3ccccc3)cc2)CC1 [Example 99, 1-[1-(4-Phenethyloxy-benzyl)-piperidin-4-yl]-pyrrolidin-2-one] |  | 17
